# Results published in US9867794B2, “Regulation of osteopontin” (Pathologica LLC, priority 2007, dated 2018).
# Several values for one entry are separate records, joined by “and”; a condition that tells them apart may be missing. Equal values may be shown once.
# Key:
# [1] = tested on: IL24; assay: Quantitative RT-PCR, unsorted mononuclear cells, IL24; assay type: cell-based, human
# Description: (§1) To evaluate the effect of MGBG on gene expression, blood samples were obtained from patients (N=18, 10 HIV-infected and 8 Healthy Controls). Mononuclear cells were isolated via Percoll gradient centrifugation. The cells were split into two tubes, one treated with 10 μM of MGBG and the other non-treated. The cells were then cultured overnight in RPMI media plus 10% fetal bovine serum at 37 C under non-adherent conditions, collected, lysed using Trizol solution, and total RNA prepared according to manufacturer's instructions (Invitrogen, Carlsbad, Calif.).
# (§2) Approximately 200 ng of total RNA prepared from each sample was converted to cDNA using the First Strand cDNA Synthesis Kit for RT-PCR [AMV] kit (Roche Applied Diagnostics, Indianapolis, Ind.) according to manufacturer's instructions. Around 5 ng of cDNA sample was then used for PCR performed on a LightCycler (Roche Applied Diagnostics, Indianapolis, Ind.) using the LightCycler FastStart DNA Master SYBR Green I kit. PCR conditions are as follows: 1 cycle of denaturation at 95° C. for 10 minutes, followed by 45 cycles of 95° C. for 10 seconds, 68° C. for 10 seconds, and 72° C. for 16 seconds.
# (§3) The sequences of gene-specific primers evaluated are listed below. All samples were also amplified with the human β-actin LightCycler-Primer set (Roche Diagnostics).
# [2] = tested on: PBMCs; assay: Cell viability of PBMC cultures when CCS were collected; assay type: cell-based, human; details: each MGBG concentration (0.1-100 μM), when the CCS were collected
# [3] = tested on: ADA; assay: Quantitative RT-PCR, unsorted mononuclear cells, ADA; assay type: cell-based, human
# Description: as §1, §2, §3
# [4] = tested on: IL10; assay: Microarray analysis of mononuclear cells, IL10 probe; assay type: cell-based, human; details: presence of MGBG, all samples
# Description: Blood samples were obtained from HIV infected patients (N=9) with positive viral load and reduced CD4 counts, and non-HIV infected, healthy controls (N=6). Blood was collected into heparin anticoagulant tubes and mononuclear cells were isolated by Percoll gradient centrifugation. The cells from each sample were split into 2: one-half receives MGBG at concentration of 10 μM and the other half received no treatment. All samples were then cultured overnight in RPMI media with 10% fetal bovine serum at 37° C. under non-adherent conditions. The next day cells were collected by centrifugation, washed one time with PBS, and lysed by resuspension in TRIZOL, and total RNA was prepared according to manufacturer's instructions (Invitrogen, Carlsbad, Calif.). […] The RNA was then amplified for microarray analysis using a 2 cycle amplification protocol according to the manufacturer's instructions (Affymetrix, Santa Clara, Calif.). The amplified RNAs were then hybridized to Human Genome U133 plus 2.0 microarrays (Affymetrix) and expression data was obtained using an Affymetrix scanner and GCOS protocols. Microarray data was analyzed with GeneSpring Microarray Suite. Results were normalized using a set of 100 probe sets determined by the manufacturer to have relatively invariant expression across most cell types.
# [5] = tested on: CD14+ cells; assay: Yield of CD14+ cells in culture, flow cytometry; assay type: cell-based, human; details: 10 μM MGBG; for % Reduction 14, Average: 5th day
# [6] = tested on: Human Osteopontin (OPN); assay: Osteopontin ELISA of PBMC cell culture supernatants (CCS); assay type: cell-based; details: for average OPN level in CCS: fifth day
# Source text: Peripheral Blood Mononuclear Cells (PBMCs) were isolated from patients diagnosed with Amyotrophic Lateral Sclerosis (ALS), Alzheimer's Disease (AD), Human Immunodeficiency Virus (HIV), Breast Cancer, AIDS Dementia, and healthy donors. The heparinised blood was mixed with equal volumes of sterile phosphate-buffered saline (Ca^++, Mg^++ free PBS) and layered over Percoll (Amersham Biosciences, Piscataway, N.J.) at 1.087 g/ml. The cells were centrifuged and the mononuclear cell layer was collected. The PBMCs were cultured in a concentration of 1×10^6 cells/ml in non-adherent conditions in polypropylene tubes containing complete media (RPMI 1640, 10% fetal bovine serum (HyClone, Logan, Utah), 1% Sodium Pyruvate) and incubated in a 5% CO2, 37° C. humidified incubator. The cells were grown in the presence of 0 μM, 0.1 μM, 1 μM, 10 μM, or 100 μM MGBG plus complete media and the cell culture supernatants (CCS) were isolated on the fifth day and frozen at −20° C. until ready to be tested. Human Osteopontin (OPN) levels were measured with the Human Osteopontin ELISA kit (R&D Systems, Inc., Minneapolis, Minn.) according to manufacturer's instructions. The CCS were tested in duplicate and the Magellan v. 4.0 software (Salzburg, Austria) was used to analyze the results. The average OPN levels (ng/ml) in 0 μM, 0.1 μM, 1 μM, 10 μM, and 100 μM MGBG were measured. The results are depicted in FIGS. 3-7 as a graph comparing diseased sample with normal sample. […] The solid lines represent diseased cells and the dashed lines represent normal cells.
# [7] = tested on: G1P3; assay: Quantitative RT-PCR, unsorted mononuclear cells, G1P3; assay type: cell-based, human
# Description: as §1, §2, §3
# [8] = tested on: MX2; assay: Quantitative RT-PCR, unsorted mononuclear cells, MX2; assay type: cell-based, human
# Description: as §1, §2, §3
# [9] = tested on: IL6; assay: Quantitative RT-PCR, unsorted mononuclear cells, IL6; assay type: cell-based, human
# Description: as §1, §2, §3
# [10] = 10 μM MGBG overnight, untreated vs treated, negative = fold reduction, individual samples
# [11] = 10 μM MGBG, all unsorted samples
# [12] = 10 μM MGBG overnight, individual samples
smiles,measurement,setting,value
"CC(/C=N/NC(=N)N)=N\NC(=N)N [MGBG, 1,1′ [methylethanediylidene]dinitrilodiguanidine]",Fold change IL24 by QRT-PCR,[1]; [10],5.35 fold and 1.20 fold and 1.09 fold and −1.13 fold and 1.12 fold and 11.88 fold and 2.57 fold and 2.55 fold and 2.25 fold and 1.01 fold and −1.17 fold and 1.92 fold and 1.32 fold and 1.79 fold and 2.50 fold and −2.41 fold and −1.48 fold and −1.30 fold
same,"Fold change IL24, AVERAGE",[1]; [11],1.6 fold
same,"Fold change IL24, MAX",[1]; [11],11.9 fold
same,"Fold change IL24, MIN",[1]; [11],−2.4 fold
same,IL24 % >2 fold Changed,"[1]; share of samples, 10 μM MGBG",33%
same,IL24 regulation by MGBG,[1]; unsorted samples,did not exhibit a consistent pattern of change
same,cell viability,[2],at least 75%
same,Fold change ADA by QRT-PCR,[3]; [10],16.80 fold and 4.69 fold and 18.77 fold and 2.33 fold and 13.00 fold and 3.34 fold and 5.90 fold and 10.06 fold and 7.52 fold and 4.23 fold and 7.21 fold and 1.38 fold and −0.73 fold and 6.68 fold and 3.01 fold and 3.76 fold and 1.16 fold and 7.16 fold
same,"Fold change ADA, AVERAGE",[3]; [11],6.5 fold
same,"Fold change ADA, MAX",[3]; [11],18.8 fold
same,"Fold change ADA, MIN",[3]; [11],−0.7 fold
same,ADA % >2 fold Changed,"[3]; share of samples, 10 μM MGBG",83%
same,ADA regulation by MGBG,[3]; upregulated in all but one sample,strongly induced
same,"average change in IL10 signal, upregulated",[4],5.6 fold
same,% Reduction 14,"[5]; 5th day of culture, individual donor samples (HIV or healthy)",26% (2×) and 21% and 53% and 76% and 31% and <0% and 58%
same,"% Reduction 14, Average",[5]; average of HIV samples,46.8%
same,"% Reduction 14, Average",[5]; average of healthy samples,28.5%
same,average OPN level in CCS,"[6]; AD PBMCs (n=1), 0.1 μM MGBG",0.477 ng/mL
same,average OPN level in CCS,"[6]; AD PBMCs (n=1), 1 μM MGBG",0.201 ng/mL
same,average OPN level in CCS,"[6]; AD PBMCs (n=1), 10 μM MGBG",0.136 ng/mL
same,average OPN level in CCS,"[6]; AD PBMCs (n=1), 100 μM MGBG",0 ng/mL
same,average CCS OPN value,"[6]; AIDS Dementia PBMCs (AIRL2005-374), 10 μM MGBG",0.8905
same,average CCS OPN value,"[6]; ALS PBMCs (n=2), 10 μM MGBG",17.669
same,average OPN level in CCS,"[6]; HIV PBMCs (n=2), 0.1 μM MGBG",11.833 ng/mL
same,average OPN level in CCS,"[6]; HIV PBMCs (n=2), 1 μM MGBG",3.481 ng/mL
same,average OPN level in CCS,"[6]; HIV PBMCs (n=2), 10 μM MGBG",0.447 ng/mL
same,average OPN level in CCS,"[6]; HIV PBMCs (n=2), 100 μM MGBG",0 ng/mL
same,average OPN level in CCS,"[6]; breast cancer PBMCs (n=3), 0.1 μM MGBG",20.89 ng/mL
same,average OPN level in CCS,"[6]; breast cancer PBMCs (n=3), 1 μM MGBG",8.87 ng/mL
same,average OPN level in CCS,"[6]; breast cancer PBMCs (n=3), 10 μM MGBG",2.12 ng/mL
same,average OPN level in CCS,"[6]; breast cancer PBMCs (n=3), 100 μM MGBG",0.84 ng/mL
same,average OPN level in CCS,"[6]; healthy/normal PBMCs (n=3), 0.1 μM MGBG",9.69 ng/mL
same,average OPN level in CCS,"[6]; healthy/normal PBMCs (n=3), 1 μM MGBG",4.85 ng/mL
same,average OPN level in CCS,"[6]; healthy/normal PBMCs (n=3), 10 μM MGBG",1.07 ng/mL
same,average OPN level in CCS,"[6]; healthy/normal PBMCs (n=3), 100 μM MGBG",0.14 ng/mL
same,Fold change G1P3 by QRT-PCR,[7]; [12],1.92 fold and −1.25 fold (2×) and 1.31 fold and −2.03 fold and −1.14 fold (2×) and −2.04 fold and 2.13 fold and 1.22 fold (2×) and −2.99 fold and −6.63 fold and −1.95 fold and −2.85 fold and 1.47 fold and −1.66 fold and 1.68 fold
same,G1P3 AVERAGE,"[7]; 10 μM MGBG, all samples",0.96 fold
same,G1P3 MAX,"[7]; 10 μM MGBG, all samples",2.13 fold
same,G1P3 MIN,"[7]; 10 μM MGBG, all samples",−6.63 fold
same,Fold change MX2 by QRT-PCR,[8]; [12],2.03 fold and −1.09 fold and 1.16 fold (2×) and −1.01 fold and 4.35 fold and 1.56 fold and −2.81 fold and 3.07 fold and −1.33 fold and −1.77 fold and −3.27 fold and 1.36 fold and 1.13 fold and −2.11 fold and −2.85 fold and 1.23 fold and 6.06 fold
same,MX2 AVERAGE,"[8]; 10 μM MGBG, all samples",1.55 fold
same,MX2 MAX,"[8]; 10 μM MGBG, all samples",6.06 fold
same,MX2 MIN,"[8]; 10 μM MGBG, all samples",−3.27 fold
same,Fold change IL6 by QRT-PCR,[9]; [12],−5.31 fold and 3.71 fold and 1.04 fold and 1.01 fold and −2.93 fold and −4.17 fold and 2.20 fold and 2.83 fold and −2.71 fold and −4.06 fold and 1.74 fold (2×) and 1.30 fold and 1.46 fold and −6.15 fold and −1.09 fold and −5.46 fold and 14.72 fold
same,IL6 AVERAGE,"[9]; 10 μM MGBG, all samples",1.91 fold
same,IL6 MAX,"[9]; 10 μM MGBG, all samples",14.72 fold
same,IL6 MIN,"[9]; 10 μM MGBG, all samples",−6.15 fold
